Data published in patent US5314886A, “N-substituted lactams useful as cholecystokinin antagonists” (priority 1992, dated 1994).
Counter-ions that a name gives are not always drawn.

Tests used:
CCK-A = molecular target: T1, CCK-A (Rattus norvegicus, UniProt P30551); experiment: Displacement of 125I-CCK-OP binding to rat pancreatic membranes (CCK-A binding); conditions: for inhibition at 1 µM: read-out: CCK-A binding rat pancreatic membranes: percent displacement of 125I-CCK-OP; for IC50: 125I-CCK-OP
T1 sequence (P30551 1-444): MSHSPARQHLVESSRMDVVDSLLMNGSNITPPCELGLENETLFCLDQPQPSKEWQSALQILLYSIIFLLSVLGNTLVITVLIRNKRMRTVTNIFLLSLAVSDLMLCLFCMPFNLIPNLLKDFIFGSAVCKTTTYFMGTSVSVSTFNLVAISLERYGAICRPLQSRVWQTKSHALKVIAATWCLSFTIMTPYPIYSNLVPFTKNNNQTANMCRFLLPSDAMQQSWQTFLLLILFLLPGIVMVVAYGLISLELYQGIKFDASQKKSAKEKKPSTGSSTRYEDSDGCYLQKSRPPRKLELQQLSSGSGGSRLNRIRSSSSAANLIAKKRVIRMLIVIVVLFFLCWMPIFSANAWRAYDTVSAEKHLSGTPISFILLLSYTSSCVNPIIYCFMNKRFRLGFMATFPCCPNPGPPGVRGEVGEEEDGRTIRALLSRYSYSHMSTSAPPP

CCK-B = molecular target: T2, CCK-B (Cavia porcellus, UniProt H0VZC5); experiment: Displacement of 125I-CCK-OP binding to guinea pig brain homogenates (CCK-B binding); conditions: guinea pig brain membranes; for inhibition at 10 µM: read-out: CCK-B binding GP brain membranes: percent displacement of 125I-CCK-OP; for IC50: 125I-CCK-OP, read-out: CCK-B binding GP brain membranes: IC50
T2 construct: Rat pancreas or guinea pig brain was homogenized; from tissue; host or cells: guinea pig brain homogenate (membrane pellet)
T2 sequence (H0VZC5 1-426): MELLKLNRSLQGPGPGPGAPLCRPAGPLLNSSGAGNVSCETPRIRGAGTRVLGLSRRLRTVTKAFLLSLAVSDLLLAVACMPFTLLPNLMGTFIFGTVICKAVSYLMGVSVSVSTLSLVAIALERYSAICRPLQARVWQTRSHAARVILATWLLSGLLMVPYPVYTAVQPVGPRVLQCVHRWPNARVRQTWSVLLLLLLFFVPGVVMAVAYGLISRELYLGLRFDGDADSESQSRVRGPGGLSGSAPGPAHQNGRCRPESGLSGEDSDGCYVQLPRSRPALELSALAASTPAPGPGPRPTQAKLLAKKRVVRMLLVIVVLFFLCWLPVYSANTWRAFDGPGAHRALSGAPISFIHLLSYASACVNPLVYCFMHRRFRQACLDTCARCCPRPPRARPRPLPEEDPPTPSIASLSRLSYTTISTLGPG
Description: Percent displacement of ^125 I-CCK-OP binding to rat pancreatic membrane and guinea pig brain homogenates by compounds of the instant invention at different concentrations was used to quantify CCK-A and CCK-B receptor binding, respectively.
Binding of 125-CCK-OP to rat pancreas (CCK-A) and guinea pig brain (CCK-B) homogenates.
Rat pancreas or guinea pig brain was homogenized in 50 and 20 volumes, respectively, of 50 mM Tris-HCl buffer (pH 7.8 at 25° C.) with a Brinkmann polytron homogenizer. The homogenates were centrifuged twice at 50,000 x g for 20 min with an intermediate rehomogenization in fresh buffer. The final pellets were resuspended in 20 volumes (brain) or 40 volumes (pancreas) of incubation buffer [50 mM Tris-HCl, 5 mM MgCl2, 0.2% BSA, 5 mM dithiothreitol, 0.14 mg/ml bacitracin, pH 7.9 at 25° C.]. One milliliter of the final homogenate from brain or pancreas was diluted to 50 mL with incubation buffer to use in the binding assay.
Binding experiments were performed in a final volume of 1 mL in 13×100 mm borosilicate disposable culture tubes. To duplicate tubes were added 890 μL of freshly resuspended pancreas or brain homogenate; 73,000 dpm of […] (final concentration, 12 pM) and 10 μL of DMSO containing displacing agents (compounds or reference compounds, at the desired final concentrations). Nonspecific (nonsaturable) binding was determined in the presence of 1 μM unlabeled CCK-OP. After incubation for 30 min at 37° C. the binding was stopped by rapid filtration under a reduced pressure through glass fiber FPD-105 Whatman GF/B filters on Harvester and washed twice with 5 mL of ice-cold Tris buffer (50 mM Tris-HCl, pH 7.8). The radioactivity on the filters was counted in a gama counter. […] Specific binding was defined as the excess binding over that in blanks containing 1 μM unlabeled CCK-OP.
Determination of IC50 for displacing agents

CCK receptors = experiment: Rat gastric emptying: reversal of CCK-delayed gastric emptying; type: in vivo; conditions: IP, CCK 100 μg/Kg i.p.
Description: Rat Gastric Emptying Protocol
A test meal for measuring gastric emptying in rats was prepared. Ten grams of methylcellulose (2% solution=15 centipoises; Aldrich Chemical Company, Milwaukee, Wisc. was added to 200ml of cold water and mixed at 20,000 rpm in a Waring blender to insure dispersion and hydration of the methylcellulose. In addition, two beef bouillon cubes (Wyler's, Columbus, Ohio) dissolved in 100 ml of warm water was added to the mixture, followed by 16 g of casein (Hammersten, Schwartz/Mann, Orangeburg, N.Y.), 8 g of powdered confectioners sugar and 8 g of cornstarch. The ingredients were mixed for two minutes at 20,000 rpm and the resultant test meal was refrigerated for 48 hours to allow trapped air to escape. Male Charles River Rats, Crl: COBS, CD (SD) BR Strain, 180-200 g body weight, were used in groups of six animals. The animals were food deprived for 24 hours prior to the experiment with access to water ad libitum. The compounds to be evaluated were prepared in a 0.5% aqueous methylcellulose solution. If insoluble, the mixture was homogenized for two minutes at 5500 rpm using a Try-R-Stir-R. The compounds were given intraperitoneally or intragastrically at a volume of 5 ml/kg, 60 minutes or 90 min, respectively, before the test meal. Control animals received only the vehicle. Cholecystokinin (100 μg/Kg, i.p.) was given 30 minutes before the test meal to delay gastric emptying by an effect elicited through CCK receptors. Sixty minutes after the test meal (2.0 ml/rat, i.g.), the rats were sacrificed by CO2 asphyxiation. The stomachs were removed intact and weighed. The stomachs were kept opened, gently rinsed with tap water, blotted dry with paper toweling, and the empty stomach weighed. The difference between the weight of the full and empty stomach is indicative of the amount of meal remaining in the stomach. The amount of meal remaining in the stomach was subtracted from the weight of 3 ml of the test meal to determine the amount of food emptied from the stomach during the test. Weight of the test meal was determined by weighing three samples (3 ml) at the beginning and three samples at the end of each experiment and calculating the mean. The mean and standard error of the amount of meal emptied were calculated for at least 5 doses of compound, and expressed as percent change from control.

Compound	inhibition at 1 µM (CCK-A) [%]	inhibition at 10 µM (CCK-B) [%]	IC50 (CCK-A) [nM]	IC50 (CCK-B) [nM]	CCK-delayed gastric emptying: ED50 (CCK receptors) [mpk]
CC(C)(C)OC(=O)[C@@H]1CN(c2ccccc2)C(=O)[C@@H]1NC(=O)c1ccc2ccccc2c1 (relative stereo) [1,1-Dimethylethyl cis-4-[(2-naphthalenylcarbonyl)amino]-5-oxo-1-phenyl-3-pyrrolidinecarboxylate]	32	35	–	–	–
O=C(N[C@@H]1C(=O)N(c2ccccc2)C[C@H]1C(=O)O)c1ccc2ccccc2c1 (relative stereo) [41 trans]	–	22	–	–	3.2
CCCCCN1C[C@H](C(=O)O)[C@H](NC(=O)Nc2ccc(Cl)cc2)C1=O (relative stereo) [47 cis]	–	–	> 1000	–	–
CCCCCN1C[C@@H](C(=O)O)[C@H](NC(=O)Nc2ccc(Cl)cc2)C1=O (relative stereo) [47 trans]	–	–	> 1000	–	–
CCCCCN1C[C@@H](C(=O)O)[C@@H](NC(=O)c2cnc3ccccc3c2)C1=O (relative stereo) [Example 27, cis-5-oxo-1-pentyl-4-[(3-quinolinylcarbonyl)amino]-3-pyrrolidinecarboxylic acid, monohydrochloride]	–	–	250	> 10000	–
O=C(N[C@@H]1C(=O)N(c2ccccc2F)C[C@@H]1C(=O)O)c1cnc2ccccc2c1 (relative stereo) [Example 28, cis-1-(2-fluorophenyl)-5-oxo-4-[(3-quinolinylcarbonyl)amino]5-oxo-3-pyrrolidinecarboxylic acid]	–	–	–	> 10000	–
O=C(N[C@@H]1C(=O)N(c2ccccc2)C[C@H]1C(=O)O)c1cc2ccccc2[nH]1 (relative stereo) [Example 30, trans-4-[(1H-Indol-2-ylcarbonyl)amino]-5-oxo-1-phenyl-3-pyrrolidinecarboxylic acid]	–	–	320	–	–
CCCCCN1C[C@@H](C(=O)O)[C@@H](NC(=O)c2ccc(Cl)c(Cl)c2)C1=O (relative stereo) [Example 32, cis-4-[[(3,4-Dichlorophenyl)carbonyl]amino]-5-oxo-1-pentyl-3-pyrrolidinecarboxylic acid]	–	49	300	–	–
CCCCCN1C[C@@H](C(=O)O)[C@@H](NC(=O)Nc2ccc(Cl)c(Cl)c2)C1=O (relative stereo) [Example 34, cis-4-[[[(3,4-dichlorophenyl)amino]carbonyl]amino]-5-oxo-1-pentyl-3-pyrrolidinecarboxylic acid]	–	–	350	6000	–
O=C(N[C@@H]1C(=O)N(c2ccccc2)C[C@H]1C(=O)O)c1ccc(Cl)c(Cl)c1 (relative stereo) [Example 35 (trans), trans-4-[[(3,4-dichlorophenyl)carbonyl]amino]-5-oxo-1-phenyl-3-pyrrolidinecarboxylic acid]	–	–	> 1000	> 10000	–
O=C(Nc1ccc(Cl)c(Cl)c1)N[C@H]1C(=O)N(c2ccccc2)C[C@H]1C(=O)O (relative stereo) [Example 36 (cis), cis-4-[[[(3,4-dichlorophenyl)amino]carbonyl]amino]-5-oxo-1-phenyl-3-pyrrolidinecarboxylic acid]	–	–	100	10000	–

Continued, in another order:

inhibition at 1 µM (CCK-A) [%]	inhibition at 10 µM (CCK-B) [%]	IC50 (CCK-A) [nM]	IC50 (CCK-B) [nM]	Compound	CCK-delayed gastric emptying: ED50 (CCK receptors) [mpk]
–	45	> 1000	–	O=C(Nc1ccc(Cl)c(Cl)c1)N[C@@H]1C(=O)N(c2ccccc2)C[C@H]1C(=O)O (relative stereo) [Example 36 (trans)]	–
–	–	> 10000	–	CCCCCN1C[C@@H](C(=O)O)[C@H](NC(=O)c2ccc3ccccc3c2)C1=O (relative stereo) [Example 39, trans-4-[(2-Naphthalenylcarbonyl)amino]-5-oxo-1-pentyl-3-pyrrolidinecarboxylic acid]	–
–	–	2800	10000	CCCCCN1C[C@@H](C(=O)O)[C@@H](NC(=O)Nc2ccc3ccccc3c2)C1=O (relative stereo) [Example 40, cis-4-[[(2-Naphthalenylamino)carbonyl]amino]-5-oxo-1-pentyl-3-pyrrolidinecarboxylic acid]	–
–	–	> 1000	> 10000	CCCCCN1C[C@@H](C(=O)O)[C@@H](NC(=O)c2ccc(Cl)cc2)C1=O (relative stereo) [Example 45]	–
–	–	1600	> 10000	O=C(N[C@H]1C(=O)N(c2ccccc2)C[C@H]1C(=O)O)c1ccc(Cl)cc1 (relative stereo) [Example 46 (cis), cis-4-[[(4-Chlorophenyl)carbonyl]amino]-5-oxo-1-phenyl-3-pyrrolidinecarboxylic acid]	–
–	–	41000	> 10000	O=C(N[C@@H]1C(=O)N(c2ccccc2)C[C@H]1C(=O)O)c1ccc(Cl)cc1 (relative stereo) [Example 46 (trans), trans-4-[[(4-Chlorophenyl)carbonyl]amino]-5-oxo-1-phenyl-3-pyrrolidinecarboxylic acid]	–
–	–	> 1000	> 10000	O=C(Cc1c[nH]c2ccccc12)N[C@@H]1C(=O)N(c2ccccc2)C[C@H]1C(=O)O (relative stereo) [Example 51, trans-4-[(3-indolylacetyl)amino]-5-oxo-1-phenyl-3-pyrrolidinecarboxylic acid]	–
–	45	750	–	O=C(N[C@@H]1C(=O)N(c2ccccc2)C[C@@H]1C(=O)N1CCCC1)c1ccc2ccccc2c1 (relative stereo) [Example 53, cis-1-[[3-[(2-Naphthalenylcarbonyl)amino]-2-oxo-1-phenyl-4-pyrrolidinyl]carbonyl]pyrrolidine]	–
27	–	–	10000	O=C(N[C@@H]1C(=O)N(c2ccccc2)C[C@H]1C(=O)N1CCCC1)c1ccc2ccccc2c1 (relative stereo) [Example 55, trans-1-[[3-[(2-Naphthalenylcarbonyl)amino]-2-oxo-1-phenyl-4-pyrrolidinyl]carbonyl]pyrrolidine]	–
